Measured values as given in publication PMC4240912, “Multifaceted interplay between lipophilicity, protein interaction and luminescence parameters of non-intercalative ruthenium(II) polypyridyl complexes controlling cellular imaging and cytotoxic properties” (Journal of Biological Inorganic Chemistry, 2014).

Legend:
4T1 cells = assay: Ruthenium uptake / cell luminescence measured by flow cytometry; assay type: cell-based; conditions: 4T1, [Ru-complex] = 2 µM, 24 h, medium without or with serum (2 %)
Protocol: 4T1 cells were seeded in a 24-well plate with a density of 2 × 10^5 cells per cm^2. 24 h after the seeding Ru(II) compounds were added at 2 µM concentration and incubated for 24 h in medium with or without serum (2 %). Then cells were washed with PBS, detached by trypsin treatment and analyzed by BDLSR cytometer with an excitation wavelength of 488 nm and an emission wavelength of 575 ± 13 nm.

[1] = molecular target: human serum albumin (HSA) (Homo sapiens, UniProt P02768); assay: Luminescence quantum yield and lifetime in the presence of HSA
Chain of human serum albumin (HSA) (P02768 25-609): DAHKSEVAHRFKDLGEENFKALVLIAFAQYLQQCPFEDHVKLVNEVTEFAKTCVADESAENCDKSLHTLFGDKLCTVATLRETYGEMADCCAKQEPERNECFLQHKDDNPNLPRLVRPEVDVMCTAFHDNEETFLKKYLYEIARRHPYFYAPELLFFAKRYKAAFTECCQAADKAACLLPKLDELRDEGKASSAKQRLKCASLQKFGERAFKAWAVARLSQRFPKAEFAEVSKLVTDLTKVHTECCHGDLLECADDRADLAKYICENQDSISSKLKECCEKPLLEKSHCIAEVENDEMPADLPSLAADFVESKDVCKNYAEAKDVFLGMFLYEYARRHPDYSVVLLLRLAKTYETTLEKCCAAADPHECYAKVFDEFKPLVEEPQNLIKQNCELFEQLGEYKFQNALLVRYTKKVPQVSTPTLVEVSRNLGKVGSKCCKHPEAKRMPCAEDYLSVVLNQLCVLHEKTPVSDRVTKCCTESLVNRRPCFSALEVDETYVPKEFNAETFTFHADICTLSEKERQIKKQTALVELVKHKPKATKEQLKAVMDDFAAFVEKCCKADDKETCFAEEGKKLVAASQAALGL
Protocol: The protein stock solution was prepared by dissolving human serum albumin (HSA) in water and its concentration was determined spectrophotometrically from the molar absorptivity of 4.4 × 10^4 cm^−1 M^−1 at 280 nm. The emission spectra were recorded between 305 and 500 nm upon excitation at 295 nm resulting in selective excitation of tryptophan residue of HSA. The average of three scans was subjected to smoothing and the fluorescence intensities were corrected due to dilution effects. Protein-binding experiments were conducted by measuring fluorescence spectra of protein solution (1 μM) in the presence of different amounts of ruthenium compounds (0–10 μM) in PBS buffer pH 7.4 at 37 °C. Ru–protein solutions were allowed to incubate for 5 min before the emission spectra were recorded. The quantum yield and lifetime of luminescence for ruthenium complexes in the present of HSA (1 μM) was measured using the same procedure as described for ruthenium complexes alone (the HSA/Ru-complex ratio is given in the figure caption).

- φ, quantum yield of luminescence ([1]; PBS pH 7.4, [HSA]/[Ru] = 1): 0.0472
- φ, quantum yield of luminescence ([1]; PBS pH 7.4, in the absence of HSA): 0.0076
Substance: [Ru(dip)2(1,3-dicyclohexyl-1-[4-carbonyl-(4′-methyl-2,2′-bipyridyl)]-urea)]Cl2 [[Ru(dip)2(CH3bpy-DCU)]^2+]
- luminescence of cells (flow cytometry) (4T1 cells): highest luminescence
